Source: patent US20040242650A1, “Extended dosing regimen” (priority 2003, published 2004)
Marks after values point to notes of the source that are not given here.

Assays:
[1] = system: MDA-MB-468 breast subcutaneous flank xenografts; assay: MDA-MB-468 breast flank xenograft model; type: in vivo, female nude mice; details: q.d x1; for Tumor Volume Day 38: mean ± SEM; for % ILS: median, time to 1 cc vs vehicle; for % T/C Day 38: treated vs vehicle
Procedure: (§1) Efficacy of N-[2-[(4-hydroxyphenyl)amino]-3-pyridyl]-4-methoxybenzenesulfonamide was tested in Calu-6 NSCL, MDA-MB-468 breast and HT-29 colon carcinoma xenografts grown in nude mice. The objectives were determination of the efficacy of N-[2-[(4-hydroxyphenyl)amino]-3-pyridyl]-4-methoxybenzenesulfonamide as a single agent and in combination with cisplatin in the Calu-6 NSCL flank xenograft model; determination the efficacy of N-[2-[(4-hydroxyphenyl)amino]-3-pyridyl]-4-methoxybenzenesulfonamide as a single agent and in combination with docetaxel in the MDA-MB 468 breast flank xenograft model; determination of the efficacy of N-[2-[(4-hydroxyphenyl)amino]-3-pyridyl]-4-methoxybenzenesulfonamide as a single agent and in combination with 5-FU in the HT-29 colon flank xenograft model; and comparison the efficacy of N-[2-[(4-hydroxyphenyl)amino]-3-pyridyl]-4-methoxybenzenesulfonamide administered on 2 different schedules (q.d. vs b.i.d.) in the Calu-6 and HT-29 xenogaft model.
(§2) Following inoculation of tumor cells, tumors were passaged three times in mice before using the fragments to generate single cell suspensions. Multiple animals were used as donors. Single cell suspensions were generated by homogenizing the minced tumor tissue in RPMI 1640 media. Cell suspensions were washed three times to remove debris and other foreign materials. Viable cells were counted by trypan blue exclusion technique using a hemocytometer. Mice were injected subcutaneously with 0.5 ml of the cell suspension containing 1×10^6 cells.
Efficacy of N-[2-[(4-hydroxyphenyl)amino]-3-pyridyl]-4-methoxybenzenesulfonamide in the MDA-MB-468 Breast Flank Xenograft Model. Tumor cells derived from serially passaged tumor fragments were inoculated s.c. in female nude mice on day 0. On day 10, mice bearing established tumors were size matched at ˜231 mm^3 and placed into the following groups:
(§3) N-[2-[(4-hydroxyphenyl)amino]-3-pyridyl]-4-methoxybenzenesulfonamide—100, and 75 mg/kg/day (p.o., q.d., 5 days on, 5 days off ×2)
N-[2-[(4-hydroxyphenyl)amino]-3-pyridyl]-4-methoxybenzenesulfonamide—50 and 0 mg/kg/day (p.o., q.d. ×21)
Docetaxel—40, 33.3, 16.7 and 0 mg/kg/day (i.v., qd ×1)

[2] = system: Calu-6 lung subcutaneous flank xenografts; assay: Calu-6 flank xenograft model; type: in vivo, male nude mice; details: q.d x1; for Tumor Volume Day 38: mean ± SEM; for % ILS: median, time to 1 cc vs vehicle; for % T/C Day 38: treated vs vehicle
Procedure: as §1, §2
Tumor cells were inoculated s.c. into male nude mice on day 0. On day 10, mice bearing established tumors were size matched at ˜233 mm^3 and placed into the following groups:
as §3
N-[2-[(4-hydroxyphenyl)amino]-3-pyridyl]-4-methoxybenzenesulfonamide—50 and 0 mg/kg/day (p.o., q.d. ×21 or p.o., b.i.d. ×21)
Cisplaitn—20, 10, 8 and 0 mg/kg/day (ip, qd ×1)
Combination Therapy—100/10, 75/10, 100/8 mg/kg/day (p.o., q.d., 5 days on, 5 days off ×2/ip, qd ×1), 50/10 mg/kg/day (p.o., q.d., ×21/ ip, qd ×1)

[3] = system: HT-29 colon subcutaneous flank xenografts; assay: HT-29 flank xenograft model; type: in vivo, nude mice; details: q.d x5; for Tumor Volume Day 38: mean ± SEM; for % ILS: median, time to 1 cc vs vehicle; for % T/C Day 38: treated vs vehicle
Procedure: as §1, §2
Tumor cells derived from serially passaged tumor fragments were inoculated s.c. in female nude mice on day 0. On day 10, mice bearing established tumors were size matched at ˜236 mm^3 and placed into the following groups:
1. N-[2-[(4-hydroxyphenyl)amino]-3-pyridyl]-4-methoxybenzenesulfonamide—100, and 75 mg/kg/day (p.o., q.d., 5 days on, 5 days off ×2)
2. N-[2-[(4-hydroxyphenyl)amino]-3-pyridyl]-4-methoxybenzenesulfonamide—50 and 0 mg/kg/day (p.o., q.d. ×21 or p.o., b.i.d. ×21)
Combination Therapy—100/30, 75/30, mg/kg/day (p.o., q.d., 5 days on, 5 days off ×2/ip, qd ×1), 50/10 mg/kg/day (p.o., q.d., ×21/ip, qd ×1).

CC(=O)O[C@@]12CO[C@@H]1C[C@H](O)[C@@]1(C)C(=O)[C@H](O)C3=C(C)[C@@H](OC(=O)[C@H](O)[C@@H](NC(=O)OC(C)(C)C)c4ccccc4)C[C@@](O)([C@@H](OC(=O)c4ccccc4)[C@H]21)C3(C)C [Docetaxel, docetaxel, reference compound]
Tumor Volume Day 38 ([1]; 16.7 mg/kg/day i.v.): 1909 ± 101 mm^3 | % ILS ([1]; 16.7 mg/kg/day i.v.): 26*** % | % T/C Day 38 ([1]; 16.7 mg/kg/day i.v.): 68*** % | Tumor Volume Day 38 ([1]; 33.3 mg/kg/day i.v.): 551 ± 31 mm^3 | % ILS ([1]; 33.3 mg/kg/day i.v.): 67*** % | % T/C Day 38 ([1]; 33.3 mg/kg/day i.v.): 19*** % | Tumor Volume Day 38 ([1]; 40 mg/kg/day i.v.): 1008 ± 58 mm^3 | % ILS ([1]; 40 mg/kg/day i.v.): 52*** % | % T/C Day 38 ([1]; 40 mg/kg/day i.v.): 36*** %

N.N.[Cl][Pt][Cl] [Cisplatin, cisplatin, reference compound]
Tumor Volume Day 38 ([2]; 8 mg/kg/day i.p.): 1649 ± 67 mm^3 | % ILS ([2]; 8 mg/kg/day i.p.): 29*** % | % T/C Day 38 ([2]; 8 mg/kg/day i.p.): 63*** % | Tumor Volume Day 38 ([2]; 10 mg/kg/day i.p.): 914 ± 49 mm^3 | % ILS ([2]; 10 mg/kg/day i.p.): 71*** % | % T/C Day 38 ([2]; 10 mg/kg/day i.p.): 35*** % | Tumor Volume Day 38 ([2]; 20 mg/kg/day i.p.): 1472 ± 75 mm^3 | % ILS ([2]; 20 mg/kg/day i.p.): 58*** % | % T/C Day 38 ([2]; 20 mg/kg/day i.p.): 56*** %

O=c1[nH]cc(F)c(=O)[nH]1 [5-FU, 5-fluorouracil, reference compound]
Tumor Volume Day 38 ([3]; 20 mg/kg/day i.p.): 1413 ± 80 mm^3 | % ILS ([3]; 20 mg/kg/day i.p.): 25*** % | % T/C Day 38 ([3]; 20 mg/kg/day i.p.): 59*** % | Tumor Volume Day 38 ([3]; 30 mg/kg/day i.p.): 525 ± 35 mm^3 | % ILS ([3]; 30 mg/kg/day i.p.): 75*** % | % T/C Day 38 ([3]; 30 mg/kg/day i.p.): 22*** % | Tumor Volume Day 38 ([3]; 40 mg/kg/day i.p.): 973 ± 45 mm^3 | % ILS ([3]; 40 mg/kg/day i.p.): 50*** % | % T/C Day 38 ([3]; 40 mg/kg/day i.p.): 41*** %
